From patent US20200024278A1, “COMPOSITION COMPRISING ANTIBIOTIC COMPOUND AND AN HETEROCYCLIC COMPOUND AND THEIR USE IN PREVENTING OR TREATING BACTERIAL INFECTIONS” (MUTABILIS, priority 2016, published 2020)

Tests used:
Experiment in all cases: MIC, broth microdilution (CLSI), substance alone or ATB combined with compound at 4 or 8 μg/mL
[1] = system: SAU 29213; type: cell-based, S. aureus; conditions: for MIC ATB combined with compound / MIC ATB combined with Example compound: compound @8 μg/ml, SAU 29213
How it was run: (§1)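 Potentiation format: antibiotic dilution series run with test compound held at 4 or 8 μg/mL, alongside compound-alone MICs. Broth microdilution per CLSI in ca-MHB, 16-20 h at 35° C.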

[2] = system: KPN UFR42; type: cell-based, K. pneumoniae; conditions: for MIC ATB combined with Example compound: compound @8 μg/ml, KPN UFR42
Experimental: (§2) Compounds of the present invention were assessed against genotyped bacterial strains alone or in combination with an antibacterial. In the assays, MICs of said compounds or combination of antibiotics with fixed concentrations of said compounds (4 or 8 μg/mL) were determined by the broth microdilution method according to the Clinical Laboratory Standards Institute (CLSI-M7-A7). Briefly, compounds alone according to the invention were prepared in DMSO and spotted (2 μL each) on sterile polystyrene plates (Corning, 3788). Combinations of compounds and antibiotics dilutions were prepared in DMSO and spotted (1 μL each) on sterile polystyrene plates (Corning, 3788). Log phase bacterial suspensions were adjusted to a final density of 5·10^5 CFU/mL in cation-adjusted Mueller-Hinton broth (ca-MHB; Becton-Dickinson and Company) and added to each well (98 μL). Assays including Fosfomycin were supplemented with 25 μg/ml of Glucose-6-phosphate. Microplates were incubated for 16-20 h at 35° C. in ambient air. The MIC of the compounds was defined as the lowest concentration of said compounds that prevented bacterial growth as read by visual inspection. The MIC of ATB at each compound concentration was defined as the lowest concentration of ATB that prevented bacterial growth as read by visual inspection.

[3] = system: KPN 6299; type: cell-based, K. pneumoniae; conditions: MIC of CIP, compound @8 μg/ml
Experimental: as §2

[4] = system: KPN BAA-1898; type: cell-based, K. pneumoniae
Experimental: as §2

[5] = system: PAE 105250; type: cell-based, P. aeruginosa; conditions: for MIC ATB combined with compound / MIC ATB combined with Example compound: compound @8 μg/ml, PAE 105250
How it was run: as §1

[6] = system: PAE UFR48; type: cell-based, P. aeruginosa; conditions: for MIC ATB combined with compound / MIC ATB combined with Example compound: compound @8 μg/ml, PAE UFR48
How it was run: as §1

[7] = system: PAE UFR90; type: cell-based, P. aeruginosa; conditions: for MIC ATB combined with compound / MIC ATB combined with Example compound: compound @8 μg/ml, PAE UFR90
How it was run: as §1

[8] = system: ECL P99; type: cell-based, E. cloacae
How it was run: as §1

[9] = system: ECO UFR39; type: cell-based, E. coli; conditions: for MIC ATB combined with Example compound: compound @8 μg/ml, ECO UFR39
How it was run: as §1

[10] = system: ECO 190317; type: cell-based, E. coli
How it was run: as §1

[11] = system: SPN 49619; type: cell-based, S. pneumoniae; conditions: for MIC ATB combined with compound / MIC ATB combined with Example compound: compound @8 μg/ml, SPN 49619
How it was run: as §1

SMILES: O=C1N2CC(c3ncco3)=CC(C2)N1OC(F)(F)C(=O)O (stereo not shown) [Example 7]
- MIC ATB combined with compound ([1]; ATB ATM): >32 µg/mL
- MIC ATB combined with compound ([1]; ATB FEP): 1 µg/mL
- MIC ATB combined with compound ([1]; ATB FOS): 0.5 µg/mL
- MIC ATB combined with compound ([1]; ATB MEM): <=0.031 μg/mL
- MIC ATB combined with compound ([1]; ATB PIP): 1 µg/mL
- MIC ATB combined with Example compound ([1]; MIC of CIP): 0.25 µg/mL
- MIC ATB combined with Example compound ([1]; MIC of CLI): 0.031 µg/mL
- MIC ATB combined with Example compound ([1]; MIC of CPO): 0.25 µg/mL
- MIC ATB combined with Example compound ([1]; MIC of DAP): 1 µg/mL
- MIC ATB combined with Example compound ([1]; MIC of ERY): 0.25 µg/mL
- MIC ATB combined with Example compound ([1]; MIC of LZD): 1 µg/mL
- MIC ATB combined with Example compound ([1]; MIC of RIF): 0.0078 µg/mL
- MIC ATB combined with Example compound ([1]; MIC of SYN): 0.25 µg/mL
- MIC ATB combined with Example compound ([1]; MIC of VAN): 1 µg/mL
- MIC ([1]; Staphylococcus aureus, MSSA): 32 µg/mL
- MIC ([2]; Klebsiella pneumoniae): 16 µg/mL
- MIC ATB combined with Example compound ([2]; MIC of CIP): >32 µg/mL
- MIC ATB combined with Example compound ([2]; MIC of CPO): <=0.031 μg/mL
- MIC ATB combined with Example compound [3]: 8 µg/mL
- MIC ([4]; Klebsiella pneumoniae, BAA1898): 8 µg/mL
- MIC ATB combined with Example compound ([4]; MIC of CIP, compound @8 μg/ml, KPN BAA-1898): 1 µg/mL
- MIC ATB combined with compound ([5]; ATB ATM): 8 µg/mL
- MIC ATB combined with compound ([5]; ATB FEP): 8 µg/mL
- MIC ATB combined with compound ([5]; ATB FOS): >128 µg/mL
- MIC ATB combined with compound ([5]; ATB MEM): 4 µg/mL
- MIC ATB combined with compound ([5]; ATB PIP): >32 µg/mL
- MIC ATB combined with Example compound ([5]; MIC of CIP): 0.125 µg/mL
- MIC ATB combined with Example compound ([5]; MIC of CPO): 16 µg/mL
- MIC ([5]; Pseudomonas aeruginosa): > 32 µg/mL
- MIC ATB combined with compound ([6]; ATB ATM): >32 µg/mL
- MIC ATB combined with compound ([6]; ATB FEP): 32 µg/mL
- MIC ATB combined with compound ([6]; ATB FOS): 32 µg/mL
- MIC ATB combined with compound ([6]; ATB MEM): 4 µg/mL
- MIC ATB combined with compound ([6]; ATB PIP): >32 µg/mL
- MIC ATB combined with Example compound ([6]; MIC of CIP): 4 µg/mL
- MIC ATB combined with Example compound ([6]; MIC of CPO): >32 µg/mL
- MIC ([6]; Pseudomonas aeruginosa): > 32 µg/mL
- MIC ATB combined with compound ([7]; ATB ATM): 16 µg/mL
- MIC ATB combined with compound ([7]; ATB FEP): 4 µg/mL
- MIC ATB combined with compound ([7]; ATB FOS): 8 µg/mL
- MIC ATB combined with compound ([7]; ATB MEM): 2 µg/mL
- MIC ATB combined with compound ([7]; ATB PIP): >32 µg/mL
- MIC ATB combined with Example compound ([7]; MIC of CIP): 1 µg/mL
- MIC ATB combined with Example compound ([7]; MIC of CPO): 16 µg/mL
- MIC ([7]; Pseudomonas aeruginosa): > 32 µg/mL
- MIC ([8]; Enterobacter cloacae): 8 µg/mL
- MIC ATB combined with Example compound ([8]; MIC of CIP, compound @8 μg/ml, ECL P99): <0.031 µg/mL
- MIC ([9]; Escherichia coli): 8 µg/mL
- MIC ATB combined with Example compound ([9]; MIC of CIP): <0.031 µg/mL
- MIC ATB combined with Example compound ([9]; MIC of CPO): <0.031 µg/mL
- MIC ([10]; Escherichia coli): 4 µg/mL
- MIC ATB combined with Example compound ([10]; MIC of CIP, compound @8 μg/ml, ECO 190317): <0.031 µg/mL
- MIC ATB combined with compound ([11]; ATB ATM): >32 µg/mL
- MIC ATB combined with compound ([11]; ATB FEP): <=0.031 μg/mL
- MIC ATB combined with compound ([11]; ATB FOS): 8 µg/mL
- MIC ATB combined with compound ([11]; ATB MEM): <=0.031 μg/mL
- MIC ATB combined with compound ([11]; ATB PIP): 0.5 µg/mL
- MIC ATB combined with Example compound ([11]; MIC of CIP): 0.5 µg/mL
- MIC ATB combined with Example compound ([11]; MIC of CLI): 0.125 µg/mL
- MIC ATB combined with Example compound ([11]; MIC of CPO): <=0.031 μg/mL
- MIC ATB combined with Example compound ([11]; MIC of DAP): 0.125 µg/mL
- MIC ATB combined with Example compound ([11]; MIC of ERY): 0.125 µg/mL
- MIC ATB combined with Example compound ([11]; MIC of LZD): 1 µg/mL
- MIC ATB combined with Example compound ([11]; MIC of RIF): 0.0078 µg/mL
- MIC ATB combined with Example compound ([11]; MIC of SYN): 0.5 µg/mL
- MIC ATB combined with Example compound ([11]; MIC of VAN): 0.125 µg/mL
- MIC ([11]; Streptococcus pneumoniae): 16 µg/mL
